Measurements taken from ChEMBL document CHEMBL5728709, “Indazole derivatives useful as inhibitors of diacylglyceride O-acyltransferase 2” (2021).

Molecular target: T1, Diacylglycerol O-acyltransferase 2 (Homo sapiens, UniProt Q96PD7)
T1 sequence (Q96PD7 whole entry): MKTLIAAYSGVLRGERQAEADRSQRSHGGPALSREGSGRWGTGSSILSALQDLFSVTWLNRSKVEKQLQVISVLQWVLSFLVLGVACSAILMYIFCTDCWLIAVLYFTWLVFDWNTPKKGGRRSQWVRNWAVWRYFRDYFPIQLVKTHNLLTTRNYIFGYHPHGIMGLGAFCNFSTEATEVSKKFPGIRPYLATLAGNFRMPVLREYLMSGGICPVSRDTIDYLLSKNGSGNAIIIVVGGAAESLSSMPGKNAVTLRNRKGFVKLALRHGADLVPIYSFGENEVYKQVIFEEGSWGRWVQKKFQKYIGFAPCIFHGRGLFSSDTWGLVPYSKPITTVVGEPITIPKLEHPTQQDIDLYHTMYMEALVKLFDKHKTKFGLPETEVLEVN
Test: Enzymatic Activity Assay: DGAT2 activity was determined by measuring the amount of enzymatic product triolein (1,2,3-Tri(cis-9-octadecenoyl)glycerol) using the membrane prep mentioned above. The assay was carried out in deep well 384 plates in a final volume of 40 μL at room temperature. The assay mixture contained the following: assay buffer (100 mM Tris.Cl, pH 7.0, 20 mM MgCl2, 5% ethanol), 25 μM of diolein, 10 μM of oleoyl-CoA and 10 ng/μL of DGAT2 membrane.

IC50: 205 nM
Structure (SMILES): CC(C)(C)OC(=O)N1C[C@@H](O)[C@H](NC(=O)c2ccc3c(-c4ccccc4Cl)nn(-c4ccc(F)cc4)c3c2)C1
